{
  "source": "PubChem BioAssay (NCI)",
  "assay_in_all_cases": "NCI tumour cell line growth inhibition, 48 h",
  "key": {"[1]": {"system": "HOP-92 NSCLC"}, "[2]": {"system": "LXFL 529 NSCLC"}, "[3]": {"system": "HL-60(TB) leukemia"}, "[4]": {"system": "SK-MEL-2 melanoma"}, "[5]": {"system": "SN12C renal"}, "[6]": {"system": "IGROV1 ovarian"}, "[7]": {"system": "M14 melanoma"}, "[8]": {"system": "UACC-62 melanoma"}, "[9]": {"system": "MDA-MB-435"}, "[10]": {"system": "LOX IMVI melanoma"}, "[11]": {"system": "BT-549 breast"}, "[12]": {"system": "UO-31 renal"}, "[13]": {"system": "SNB-19 CNS"}, "[14]": {"system": "CAKI-1 renal"}, "[15]": {"system": "MALME-3M melanoma"}, "[16]": {"system": "KM20L2 colon"}, "[17]": {"system": "T-47D breast"}, "[18]": {"system": "MCF7 breast"}, "[19]": {"system": "SW-620 colon"}, "[20]": {"system": "786-0 renal"}, "[21]": {"system": "HCC-2998 colon"}, "[22]": {"system": "A549 NSCLC"}, "[23]": {"system": "XF 498 CNS"}, "[24]": {"system": "SF-268 CNS"}, "[25]": {"system": "SF-295 CNS"}, "[26]": {"system": "DU-145 prostate"}, "[27]": {"system": "EKVX NSCLC"}, "[28]": {"system": "COLO 205 colon"}, "[29]": {"system": "MOLT-4 leukemia"}, "[30]": {"system": "SNB-78 CNS"}, "[31]": {"system": "HOP-62 NSCLC"}, "[32]": {"system": "CCRF-CEM leukemia"}, "[33]": {"system": "UACC-257 melanoma"}, "[34]": {"system": "HCT-116 colon"}, "[35]": {"system": "U251 CNS"}, "[36]": {"system": "OVCAR-3 ovarian"}, "[37]": {"system": "HS 578T breast"}, "[38]": {"system": "SK-MEL-5 melanoma"}, "[39]": {"system": "PC-3 prostate"}, "[40]": {"system": "SNB-75 CNS"}, "[41]": {"system": "MDA-MB-231 breast"}, "[42]": {"system": "DMS 114 small cell lung"}, "[43]": {"system": "NCI-H522 lung"}, "[44]": {"system": "SR leukemia"}, "[45]": {"system": "RPMI-8226 leukemia"}, "[46]": {"system": "DLD-1 colon"}, "[47]": {"system": "HT29 colon"}, "[48]": {"system": "SF-539 CNS"}, "[49]": {"system": "HOP-18 NSCLC"}, "[50]": {"system": "RXF-631 renal"}, "[51]": {"system": "SK-OV-3 ovarian"}, "[52]": {"system": "OVCAR-8 ovarian"}, "[53]": {"system": "HCT-15 colon"}, "[54]": {"system": "A498 renal"}, "[55]": {"system": "ACHN renal"}, "[56]": {"system": "DMS 273 small cell lung"}, "[57]": {"system": "NCI-H460 lung"}, "[58]": {"system": "OVCAR-4 ovarian"}, "[59]": {"system": "K-562 leukemia"}, "[60]": {"system": "KM12 colon"}, "[61]": {"system": "NCI/ADR-RES ovarian"}},
  "note": "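96-well plates; 48 h exposure; 5 concentrations. Endpoints by linear interpolation between flanking doses. Not reached: highest tested concentration assigned. Abbreviation: GI50, concentration required for 50% inhibition of growth. Definition used: TGI = concentration required for complete inhibition of growth.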",
  "data": [
    {"smiles": "Nc1[nH]c(=O)nc2c1cnn2Cc1ccccc1", "values": [
      {"measurement": "TGI", "setting": "[1]", "value": "> 100", "unit": "µM"},
      {"measurement": "TGI", "setting": "[2]", "value": "> 100", "unit": "µM"},
      {"measurement": "TGI", "setting": "[3]", "value": "> 100", "unit": "µM"},
      {"measurement": "TGI", "setting": "[4]", "value": "> 100", "unit": "µM"},
      {"measurement": "TGI", "setting": "[5]", "value": "> 100", "unit": "µM"},
      {"measurement": "TGI", "setting": "[6]", "value": "> 100", "unit": "µM"},
      {"measurement": "TGI", "setting": "[7]", "value": "> 100", "unit": "µM"},
      {"measurement": "GI50", "setting": "[8]", "value": "> 100", "unit": "µM"},
      {"measurement": "TGI", "setting": "[8]", "value": "> 100", "unit": "µM"},
      {"measurement": "GI50", "setting": "[9]", "value": "> 100", "unit": "µM"},
      {"measurement": "TGI", "setting": "[9]", "value": "> 100", "unit": "µM"},
      {"measurement": "TGI", "setting": "[10]", "value": "> 100", "unit": "µM"},
      {"measurement": "GI50", "setting": "[11]", "value": 36.2, "unit": "µM"},
      {"measurement": "TGI", "setting": "[11]", "value": "> 100", "unit": "µM"},
      {"measurement": "TGI", "setting": "[12]", "value": "> 100", "unit": "µM"},
      {"measurement": "TGI", "setting": "[13]", "value": "> 100", "unit": "µM"},
      {"measurement": "TGI", "setting": "[14]", "value": "> 100", "unit": "µM"},
      {"measurement": "TGI", "setting": "[15]", "value": "> 100", "unit": "µM"},
      {"measurement": "TGI", "setting": "[16]", "value": 3.05, "unit": "µM"},
      {"measurement": "GI50", "setting": "[17]", "value": "> 100", "unit": "µM"},
      {"measurement": "TGI", "setting": "[17]", "value": "> 100", "unit": "µM"},
      {"measurement": "GI50", "setting": "[18]", "value": "> 100", "unit": "µM"},
      {"measurement": "TGI", "setting": "[18]", "value": "> 100", "unit": "µM"},
      {"measurement": "TGI", "setting": "[19]", "value": "> 100", "unit": "µM"},
      {"measurement": "GI50", "setting": "[20]", "value": "> 100", "unit": "µM"},
      {"measurement": "TGI", "setting": "[20]", "value": "> 100", "unit": "µM"},
      {"measurement": "GI50", "setting": "[21]", "value": "> 100", "unit": "µM"},
      {"measurement": "TGI", "setting": "[21]", "value": "> 100", "unit": "µM"},
      {"measurement": "TGI", "setting": "[22]", "value": "> 100", "unit": "µM"},
      {"measurement": "TGI", "setting": "[23]", "value": "> 100", "unit": "µM"},
      {"measurement": "TGI", "setting": "[24]", "value": "> 100", "unit": "µM"},
      {"measurement": "TGI", "setting": "[25]", "value": "> 100", "unit": "µM"},
      {"measurement": "GI50", "setting": "[26]", "value": "> 100", "unit": "µM"},
      {"measurement": "TGI", "setting": "[26]", "value": "> 100", "unit": "µM"},
      {"measurement": "TGI", "setting": "[27]", "value": "> 100", "unit": "µM"},
      {"measurement": "TGI", "setting": "[28]", "value": "> 100", "unit": "µM"},
      {"measurement": "TGI", "setting": "[29]", "value": "> 100", "unit": "µM"},
      {"measurement": "TGI", "setting": "[30]", "value": 3.08, "unit": "µM"},
      {"measurement": "GI50", "setting": "[31]", "value": "> 100", "unit": "µM"},
      {"measurement": "TGI", "setting": "[31]", "value": "> 100", "unit": "µM"},
      {"measurement": "TGI", "setting": "[32]", "value": "> 100", "unit": "µM"},
      {"measurement": "TGI", "setting": "[33]", "value": "> 100", "unit": "µM"},
      {"measurement": "TGI", "setting": "[34]", "value": "> 100", "unit": "µM"},
      {"measurement": "TGI", "setting": "[35]", "value": 2.73, "unit": "µM"},
      {"measurement": "GI50", "setting": "[36]", "value": "> 100", "unit": "µM"},
      {"measurement": "TGI", "setting": "[36]", "value": "> 100", "unit": "µM"},
      {"measurement": "GI50", "setting": "[37]", "value": "> 100", "unit": "µM"},
      {"measurement": "TGI", "setting": "[37]", "value": "> 100", "unit": "µM"},
      {"measurement": "TGI", "setting": "[38]", "value": "> 100", "unit": "µM"},
      {"measurement": "GI50", "setting": "[39]", "value": "> 100", "unit": "µM"},
      {"measurement": "TGI", "setting": "[39]", "value": "> 100", "unit": "µM"},
      {"measurement": "TGI", "setting": "[40]", "value": "> 100", "unit": "µM"},
      {"measurement": "GI50", "setting": "[41]", "value": "> 100", "unit": "µM"},
      {"measurement": "TGI", "setting": "[41]", "value": "> 100", "unit": "µM"},
      {"measurement": "TGI", "setting": "[42]", "value": "> 100", "unit": "µM"},
      {"measurement": "GI50", "setting": "[43]", "value": "> 100", "unit": "µM"},
      {"measurement": "TGI", "setting": "[43]", "value": "> 100", "unit": "µM"},
      {"measurement": "TGI", "setting": "[44]", "value": "> 100", "unit": "µM"},
      {"measurement": "TGI", "setting": "[45]", "value": "> 100", "unit": "µM"},
      {"measurement": "TGI", "setting": "[46]", "value": "> 100", "unit": "µM"},
      {"measurement": "TGI", "setting": "[47]", "value": "> 100", "unit": "µM"},
      {"measurement": "TGI", "setting": "[48]", "value": "> 100", "unit": "µM"},
      {"measurement": "TGI", "setting": "[49]", "value": "> 100", "unit": "µM"},
      {"measurement": "TGI", "setting": "[50]", "value": "> 100", "unit": "µM"},
      {"measurement": "GI50", "setting": "[51]", "value": "> 100", "unit": "µM"},
      {"measurement": "TGI", "setting": "[51]", "value": "> 100", "unit": "µM"},
      {"measurement": "TGI", "setting": "[52]", "value": "> 100", "unit": "µM"},
      {"measurement": "TGI", "setting": "[53]", "value": "> 100", "unit": "µM"},
      {"measurement": "TGI", "setting": "[54]", "value": "> 100", "unit": "µM"},
      {"measurement": "TGI", "setting": "[55]", "value": "> 100", "unit": "µM"},
      {"measurement": "TGI", "setting": "[56]", "value": "> 100", "unit": "µM"},
      {"measurement": "TGI", "setting": "[57]", "value": "> 100", "unit": "µM"},
      {"measurement": "TGI", "setting": "[58]", "value": "> 100", "unit": "µM"},
      {"measurement": "TGI", "setting": "[59]", "value": "> 100", "unit": "µM"},
      {"measurement": "TGI", "setting": "[60]", "value": "> 100", "unit": "µM"},
      {"measurement": "GI50", "setting": "[61]", "value": "> 100", "unit": "µM"},
      {"measurement": "TGI", "setting": "[61]", "value": "> 100", "unit": "µM"}
    ]}
  ]
}
